In brackets after ≈: the same amount, converted by molar mass.
Experiments:
[1] = Anatomic pathology (heart and kidney histopathology) in mice; type: in vivo, CD-1 mice; settings: 20 mg/kg intravenously daily for 9 days, microscopic histopathology on day 10
Description: 20-day-old CD-1 mice were divided into a vehicle control group (5 mice) and a treatment group (5 mice). Samples of glycopeptide antibiotics were administered at 20 mg/kg intravenously daily for 9 days.
Samples of tissues from necropsied mice were formalin-fixed, paraffin-embedded, sectioned, stained with hematoxylin and eosin, and examined microscopically. Histopathologic findings were recorded. These findings were subjectively graded on a scale corresponding to slight, mild, moderate, marked and severe as compared to untreated controls.

[2] = test system: Escherichia coli; experiment: In vitro antibacterial evaluation: minimum inhibitory concentration (MIC), broth dilution method; type: cell-based; settings: strain GC 4560
Summary of the method: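 Inoculum: 5×10^5 CFU/mL. Range: 64-0.06 μg/mL. Medium: Muller-Hinton II […]; NCCLS M7-A2 broth dilution. Endpoint: lowest concentration inhibiting growth. Strains include methicillin-, penicillin- and/or vancomycin-resistant clinical isolates.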

[3] = test system: Staphylococcus aureus-SMITH (GC 4543); experiment: Acute lethal infection in mice (ED50); type: in vivo; settings: female CD-1 mice, intraperitoneal challenge, intravenous dose 30 min. after infection, 7 day survival ratios
Summary of the method: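 Groups of five female CD-1 mice per dose got intravenous antibiotic in saline or 5% dextrose half an hour after intraperitoneal infection sufficient to kill controls within 24-48 hr. Seven-day survival data from three experiments were combined to derive ED50.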

[4] = test system: Staphylococcus sp.; experiment: In vitro antibacterial evaluation: minimum inhibitory concentration (MIC), broth dilution method; type: cell-based; settings: broth dilution, 18 hours at 35° C.
Summary of the method: (§1)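 MIC read as lowest drug level preventing visible growth. Organisms at 5×10^5 CFU/mL were exposed to a 64-0.06 μg/mL dilution series in Muller-Hinton II […] following NCCLS broth dilution standard M7-A2.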

[5] = test system: Streptococcus sp.; experiment: as above; type: cell-based
Summary of the method: as §1

[6] = test system: Enterococcus sp.; experiment: as above; type: cell-based; settings: strain GC 4558
Summary of the method: as §1

[7] = Streptococcus pneumoniae (GC 1894), broth dilution, 18 hours at 35° C.

CC(c1ccccc1)C1NC(=O)CNC(=O)C(CO)NC(=O)C(C(O)C2CN(Cc3ccccc3-c3ccccc3)C(=N)N2C2OC(CO)C(O)C(O)C2O)NC(=O)C(C(O)C2CNC(=N)N2)NC(=O)C(Cc2ccc(OC3OC(CO)C(OC4OC(CO)C(O)C(O)C4O)C(O)C3O)cc2)NC1=O (stereo not shown) [Example 65]
Anatomical Pathology (Day 10), Heart [1]: 0
Anatomical Pathology (Day 10), Kidney [1]: +++
MIC Escherichia coli (GC 4560) [2]: 32 µg/mL (≈ 21.9 µM)
median effective dose (ED50), Staphylococcus aureus-SMITH (GC 4543) [3]: >8

CN=C1N(C)CC(C(O)C2NC(=O)C(Cc3ccc(OC4OC(CO)C(OC5OC6COC7(OC6C(O)C5O)C5CC6CC(C5)CC7C6)C(O)C4O)cc3)NC(=O)C(C(C)c3ccccc3)NC(=O)CNC(=O)C(CO)NC(=O)C(C(O)C3CN(C)C(=NC)N3C3OC(CO)C(O)C(O)C3O)NC2=O)N1C (stereo not shown) [Example 81]
Anatomical Pathology (Day 10), Heart [1]: 0
Anatomical Pathology (Day 10), Kidney [1]: 0
MIC Coagulase Negative Staphylococcus (GC 4547) [4]: >128 µg/mL
MIC Coagulase Negative Staphylococcus (GC 4548) [4]: >128 µg/mL
MIC Coagulase Negative Staphylococcus (GC 4549) [4]: >128 µg/mL
MIC Coagulase Negative Staphylococcus (GC 4551) [4]: >128 µg/mL
MIC Coagulase Negative Staphylococcus (GC 6257) [4]: >128 µg/mL
MIC Staphylococcus aureus (ATCC 29213) [4]: >128 µg/mL
MIC Staphylococcus aureus (GC 1131) [4]: >128 µg/mL
MIC Staphylococcus aureus (GC 3051) [4]: >128 µg/mL
MIC Staphylococcus aureus (GC 3053) [4]: >128 µg/mL
MIC Staphylococcus aureus (GC 4541) [4]: >128 µg/mL
MIC Staphylococcus aureus (GC 4542) [4]: >128 µg/mL
MIC Staphylococcus aureus (GC 4544) [4]: >128 µg/mL
MIC Staphylococcus aureus (GC 4545) [4]: >128 µg/mL
MIC Staphylococcus aureus SMITH (GC 4543) [4]: >128 µg/mL
median effective dose (ED50), Staphylococcus aureus-SMITH (GC 4543) [3]: >8

CC(c1ccccc1)C1NC(=O)CNC(=O)C(CO)NC(=O)C(C(O)C2CN(Cc3ccc(C(C)(C)C)cc3)C(=N)N2C2OC(CO)C(O)C(O)C2O)NC(=O)C(C(O)C2CNC(=N)N2)NC(=O)C(Cc2ccc(OC3OC(CO)C(OC4OC(CO)C(O)C(O)C4O)C(O)C3O)cc2)NC1=O (stereo not drawn) [Example 60, Cyclo[glycyl-β-methylphenylalanyl-O-(4-O-hexopyranosylhexopyranosyl)tyrosyl-(2-iminoimidazolidin-4-yl)seryl-3-[1-(4-tert-butylbenzyl)-3-hexopyranosyl-2-iminoimidazolidin-4-yl]-serylseryl]]
Anatomical Pathology (Day 10), Heart [1]: 0
Anatomical Pathology (Day 10), Kidney [1]: 0
MIC Escherichia coli (GC 4560) [2]: 16 µg/mL (≈ 11.1 µM)
MIC Streptococcus pneumoniae (GC 1894) [5, 7]: 64 µg/mL (≈ 44.4 µM)
MIC Streptococcus pneumoniae (GC 1894) ([5]; strain GC 1894): 64 µg/mL (≈ 44.4 µM)
median effective dose (ED50), Staphylococcus aureus-SMITH (GC 4543) [3]: >8

CC(c1ccccc1)C1NC(=O)CNC(=O)C(CO)NC(=O)C(C(O)C2CN(CCCCCCCCCCCCO)C(=N)N2C2OC(CO)C(O)C(O)C2O)NC(=O)C(C(O)C2CNC(=N)N2)NC(=O)C(Cc2ccc(OC3OC(CO)C(OC4OC(CO)C(O)C(O)C4O)C(O)C3O)cc2)NC1=O (stereo not shown) [Example 61]
Anatomical Pathology (Day 10), Heart [1]: 0
Anatomical Pathology (Day 10), Kidney [1]: +++
MIC Escherichia coli (GC 4560) [2]: 8 µg/mL (≈ 5.41 µM)
MIC Enterococcus avium (GC 4558) [6]: 64 µg/mL (≈ 43.3 µM)
MIC Streptococcus pneumoniae (GC 1894) [5, 7]: 64 µg/mL (≈ 43.3 µM)
MIC Streptococcus pneumoniae (GC 4565) ([5]; Streptococcus pneumoniae (GC 4565), broth dilution, 18 hours at 35° C.): 64 µg/mL (≈ 43.3 µM)
MIC Streptococcus pneumoniae (GC 1894) ([5]; strain GC 1894): 64 µg/mL (≈ 43.3 µM)
MIC Streptococcus pneumoniae (GC 4565) ([5]; strain GC 4565): 64 µg/mL (≈ 43.3 µM)
median effective dose (ED50), Staphylococcus aureus-SMITH (GC 4543) [3]: >8

CC(c1ccccc1)C1NC(=O)CNC(=O)C(CO)NC(=O)C(C(O)C2CN(Cc3ccc4ccccc4c3)C(=N)N2C2OC(CO)C(O)C(O)C2O)NC(=O)C(C(O)C2CNC(=N)N2)NC(=O)C(Cc2ccc(OC3OC(CO)C(OC4OC(CO)C(O)C(O)C4O)C(O)C3O)cc2)NC1=O (stereo not shown) [Example 67]
Anatomical Pathology (Day 10), Heart [1]: 0
Anatomical Pathology (Day 10), Kidney [1]: 0
MIC Escherichia coli (GC 4560) [2]: 32 µg/mL (≈ 22.3 µM)
MIC Enterococcus avium (GC 4558) [6]: 64 µg/mL (≈ 44.6 µM)
MIC Streptococcus pneumoniae (GC 1894) [5, 7]: 64 µg/mL (≈ 44.6 µM)
MIC Streptococcus pneumoniae (GC 1894) ([5]; strain GC 1894): 64 µg/mL (≈ 44.6 µM)
median effective dose (ED50), Staphylococcus aureus-SMITH (GC 4543) [3]: >8

— patent US8247211B2, “Glycopeptide antibiotics” (American Cyanamid Company, priority 2001, dated 2012)
